BindingDB's records for doi:10.1016/0006-8993(87)90040-0 (St, Marianna University School of Medicine, 1987)

Target: D(2) dopamine receptor (Rattus norvegicus, UniProt P61169)
Sequence (P61169 whole entry): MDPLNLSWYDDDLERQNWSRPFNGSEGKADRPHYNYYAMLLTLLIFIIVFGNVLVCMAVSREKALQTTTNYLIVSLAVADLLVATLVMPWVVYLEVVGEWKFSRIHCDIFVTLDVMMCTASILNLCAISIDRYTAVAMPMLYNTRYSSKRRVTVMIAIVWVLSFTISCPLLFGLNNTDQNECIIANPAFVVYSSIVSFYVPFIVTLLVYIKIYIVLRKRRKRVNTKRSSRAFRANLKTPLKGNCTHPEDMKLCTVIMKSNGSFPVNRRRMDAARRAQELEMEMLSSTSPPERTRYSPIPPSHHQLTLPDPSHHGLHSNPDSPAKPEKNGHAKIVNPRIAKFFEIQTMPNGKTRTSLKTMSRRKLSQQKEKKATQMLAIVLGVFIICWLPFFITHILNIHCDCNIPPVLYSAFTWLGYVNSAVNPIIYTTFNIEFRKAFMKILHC

Going from `COc1cc2nc(N3CCN(C(=O)c4ccco4)CC3)nc(N)c2cc1OC` [[3H]-Minipress] to `COC(=O)[C@@H]1[C@H]2C[C@H]3c4[nH]c5ccccc5c4CCN3C[C@@H]2CC[C@@H]1O` [yohimbic acid methyl ester], the Ki falls from 8790 nM to 158 nM (56-fold). The second binds more tightly here.

Going from `CCN1CCC[C@H]1CNC(=O)c1cc(S(=O)(=O)CC)ccc1OC` [Sultopride] to `CCN(CC)CCNC(=O)c1cc(S(C)(=O)=O)ccc1OC` [CAS_51012-32-9], the Ki rises from 2.4 nM to 77 nM (32-fold).

For `COc1ccc2c(c1)N(C[C@@H](C)CN(C)C)c1ccccc1S2`, the Ki was 15 nM.
